Columns and labels:
[1] = biological target: Cbl-b (36-427 aa truncated form, N-terminus Avi-tag) (Homo sapiens (Human), UniProt Q13191); experiment: Cbl-b binding: TR-FRET displacement of BODIPY-FL probe
Outline: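 IC50 from loss of terbium–BODIPY-FL TR-FRET signal as compounds compete off a fluorescent Cbl-b inhibitor probe (1 uM) for 1 h at RT. Protein: N-Avi-tagged human Cbl-b 36-427 on streptavidin-terbium, 20 mM HEPES pH 7.5 buffer.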

Human primary T cells [2] = experiment: T cell activation: secreted IL-2; type: cell-based; settings: 48 hours, fold over background normalized to Compound 141A; for IL-2 1 nM: 1 nM compound; for IL-2 10 nM: 10 nM compound; for IL-2 100 nM: 100 nM compound
Procedure: (§1) Human primary T cells were isolated from commercially available frozen peripheral blood mononuclear cells (HemaCare Corporation) or from fresh LeukoPaks (Research Blood Components). T cells were isolated through depletion of non-T cells using negative selection kit according to the manufacturer's protocol (Miltenyi Biotec, Human Pan T Cell Isolation Kit, 130-096-535). Isolated cells were cultured overnight at 37° C. with 5% CO2 and plated at 1×10^5 cells per well in XVivo-15 serum-free media (Lonza, 04-418Q) into 96 well plates coated with anti-CD3 (OKT3) antibody (ThermoFisher, 16-0037-85). To coat the plates for T cell capture, anti-CD3 antibody was diluted in PBS at 10 μg/mL and 100 μl added to each well. Plates were incubated at 4° C. overnight or at 37° C. for 2 hours and washed once with PBS before use. Serial dilutions of each compound were added in duplicates to the T cells to assess their effect on T cell activation. T cells treated with 5 μg/mL of CD28 antibody (ThermoFisher, 16-0289-85) or T cells stimulated by CD3 only were used as a control. Plates were incubated with the Cbl-b inhibitors for 48 hours at 37° C. with 5% CO2, and supernatants were subsequently analyzed for levels of the activation induced secreted cytokines IL-2 or IFN-y (BD Biosciences CBA Flex Beads, 558269, 558270). T cells were additionally stained with anti-CD69 antibody (Invitrogen, 12-0699-42 which labels a T cell activation associated membrane protein to and surface expression was measured by flow cytometry (ThermoFisher Attune NxT).
(§2) To control for natural inter-donor variability in T cell responses intrinsic to using primary human donor derived cells, secreted IL-2 and IFN-y measurements for each test compound were reported as the fold increase of the compound treated levels over background (antiCD3/CD28 treatment only) normalized to the values obtained for Compound 141A. Results for compound treatment-induced changes in CD69 levels are similarly reported as the fold increase due to compound treatment over anti-CD3 stimulated background only, normalized to values obtained for Compound 141A.
Normalized T cell IL-2 responses were sorted into ranges as follows: fold over background values between 1.41 and 1.8: range “X”, between 0.80 and 1.40: range “A”, values between 0.31 and 0.79: range “B” values between 0.10 and 0.30: range “C”, values between 0.01 and 0.09: range “D.”

Human primary T cells [3] = experiment: T cell activation: secreted IFN-y; type: cell-based; settings: 48 hours, fold over background normalized to Compound 141A; for IFN-y 1 nM: 1 nM compound; for IFN-y 10 nM: 10 nM compound; for IFN-y 100 nM: 100 nM compound
Procedure: as §1, §2
Normalized T cell IFN-y responses were sorted into ranges as follows: fold over background between 1.10 and 2.00: range “A”, values between 0.31 and 1.00: range “B;” values between 0.10 and 0.30: range “C”, and values between 0.01 and 0.09: range “D.”

Human primary T cells [4] = experiment: T cell activation: CD69 surface expression by flow cytometry; type: cell-based; settings: fold over anti-CD3 stimulated background normalized to Compound 141A; for CD69 10 nM: 10 nM compound; for CD69 100 nM: 100 nM compound
Procedure: as §1, §2
Similarly, bins for normalized CD69 levels were sorted into ranges as follows: fold over background values between 1.11 and 1.6: range “X”, values between 0.81 and 1.10: range “A”; values between 0.61 and 0.80: range “B;” values between 0.30 and 0.60: range “C”.

Chain of Cbl-b (36-427 aa truncated form, N-terminus Avi-tag) (Q13191 36-427): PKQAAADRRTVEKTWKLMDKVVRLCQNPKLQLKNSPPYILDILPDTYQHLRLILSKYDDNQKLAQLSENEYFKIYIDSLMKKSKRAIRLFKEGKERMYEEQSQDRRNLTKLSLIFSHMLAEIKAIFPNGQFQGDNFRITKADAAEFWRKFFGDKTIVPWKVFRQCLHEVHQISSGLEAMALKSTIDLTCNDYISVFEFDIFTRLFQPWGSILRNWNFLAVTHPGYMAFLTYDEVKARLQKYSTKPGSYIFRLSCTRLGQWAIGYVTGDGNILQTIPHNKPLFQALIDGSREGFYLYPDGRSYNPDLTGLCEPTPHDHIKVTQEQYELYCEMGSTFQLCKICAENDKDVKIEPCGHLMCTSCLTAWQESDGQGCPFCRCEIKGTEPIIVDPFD

SMILES | IC50 [1] [nM] | IL-2 1 nM (Human primary T cells [2]) | IL-2 10 nM (Human primary T cells [2]) | IL-2 100 nM (Human primary T cells [2]) | IFN-y 1 nM (Human primary T cells [3]) | IFN-y 10 nM (Human primary T cells [3]) | IFN-y 100 nM (Human primary T cells [3]) | CD69 10 nM (Human primary T cells [4]) | CD69 100 nM (Human primary T cells [4])
CSCCNc1cc(C2(Cc3nncn3C)COC2)cc(N2Cc3c(cc(CN4CCC[C@H](C)C4)cc3C(F)(F)F)C2=O)n1 [Compound 103, 2-(4-{3-[(4-methyl-1,2,4-triazol-3-yl)methyl]oxetan-3-yl}-6-{[2-(methylsulfanyl)ethyl]amino}pyridin-2-yl)-6-{[(3S)-3-methylpiperidin-1-yl]methyl}-4-(trifluoromethyl)-3H-isoindol-1-one] | 5.01 to 20 | C (values between 0.10 and 0.30: range “C”) | C (values between 0.10 and 0.30: range “C”) | B (values between 0.31 and 0.79: range “B”) | C (values between 0.10 and 0.30: range “C”) | C (values between 0.10 and 0.30: range “C”) | B (values between 0.31 and 1.00: range “B;”) | C (values between 0.30 and 0.60: range “C”) | B (values between 0.61 and 0.80: range “B;”)
CCNc1cc(C2(Cc3nncn3C)COC2)cc(N2Cc3c(cc(CN4CCC(CSC)CC4)cc3C(F)(F)F)C2=O)n1 [Compound 106, 2-[6-(ethylamino)-4-{3-[(4-methyl-1,2,4-triazol-3-yl)methyl]oxetan-3-yl}pyridin-2-yl]-6-({4-[(methylsulfanyl)methyl]piperidin-1-yl}methyl)-4-(trifluoromethyl)-3H-isoindol-1-one] | 100 to 1000 | C (values between 0.10 and 0.30: range “C”) | C (values between 0.10 and 0.30: range “C”) | B (values between 0.31 and 0.79: range “B”) | C (values between 0.10 and 0.30: range “C”) | C (values between 0.10 and 0.30: range “C”) | B (values between 0.31 and 1.00: range “B;”) | C (values between 0.30 and 0.60: range “C”) | B (values between 0.61 and 0.80: range “B;”)
C[C@H]1CCCN(Cc2cc3c(c(C(F)(F)F)c2)CN(c2cc(C4(Cc5nncn5C)COC4)cc(NCCC#N)n2)C3=O)C1.O=CO [Compound 110, 3-[(4-{3-[(4-methyl-1,2,4-triazol-3-yl)methyl]oxetan-3-yl}-6-(6-{[(3S)-3-methylpiperidin-1-yl]methyl}-1-oxo-4-(trifluoromethyl)-3H-isoindol-2-yl)pyridin-2-yl)amino]propanenitrile; formic acid] | 1 to 5 | C (values between 0.10 and 0.30: range “C”) | B (values between 0.31 and 0.79: range “B”) | B (values between 0.31 and 0.79: range “B”) | B (values between 0.31 and 1.00: range “B;”) | B (values between 0.31 and 1.00: range “B;”) | B (values between 0.31 and 1.00: range “B;”) | B (values between 0.61 and 0.80: range “B;”) | A (values between 0.81 and 1.10: range “A”)
Cn1cnnc1CC1(c2cc(NCCC#N)nc(N3Cc4c(cc(CN5CCC6CC(O)CCC6C5)cc4C(F)(F)F)C3=O)c2)COC1 (stereo not drawn) [Compound 183, 3-((6-(6-((6-hydroxyoctahydroisoquinolin-2 (1H)-yl)methyl)-1-oxo-4-(trifluoromethyl)isoindolin-2-yl)-4-(3-((4-methyl-4H-1,2,4-triazol-3-yl)methyl)oxetan-3-yl)pyridin-2-yl)amino)propanenitrile; trifluoroacetic acid] | 100 to 1000 | – | – | – | – | – | – | – | –
Cn1cnnc1CC1(c2cc(NCCC#N)nc(N3Cc4c(cc(CN5CCc6ccc(O)cc6C5)cc4C(F)(F)F)C3=O)c2)COC1 [Compound 185, 3-((6-(6-((7-hydroxy-3,4-dihydroisoquinolin-2 (1H)-yl)methyl)-1-oxo-4-(trifluoromethyl)isoindolin-2-yl)-4-(3-((4-methyl-4H-1,2,4-triazol-3-yl)methyl)oxetan-3-yl)pyridin-2-yl)amino)propanenitrile; trifluoroacetic acid] | 5.01 to 20 | – | – | – | – | – | – | – | –
CCNc1cc(C(CO)(CCl)Cc2nncn2C)cc(N2Cc3c(cc(CN4CCC[C@H](C)C4)cc3C(F)(F)F)C2=O)n1 (stereo partly drawn) [Compound 187, 2-(4-(1-chloro-3-hydroxy-2-((4-methyl-4H-1,2,4-triazol-3-yl)methyl)propan-2-yl)-6-(ethylamino)pyridin-2-yl)-6-(((S)-3-methylpiperidin-1-yl)methyl)-4-(trifluoromethyl)isoindolin-1-one; hydrochloric acid] | 20 to 100 | – | – | – | – | – | – | – | –
Cn1cnnc1CC1(c2cc(NCCC#N)nc(N3Cc4c(cc(CN5CC6(CCC6O)C5)cc4C(F)(F)F)C3=O)c2)COC1 (stereo not drawn) [Compound 189, 3-((6-(6-((5-hydroxy-2-azaspiro[3.3]heptan-2-yl)methyl)-1-oxo-4-(trifluoromethyl)isoindolin-2-yl)-4-(3-((4-methyl-4H-1,2,4-triazol-3-yl)methyl)oxetan-3-yl)pyridin-2-yl)amino)propanenitrile; trifluoroacetic acid] | 5.01 to 20 | – | – | – | – | – | – | – | –

Continued, in another order:

IC50 [1] [nM] | SMILES | IL-2 1 nM (Human primary T cells [2]) | IL-2 10 nM (Human primary T cells [2]) | IL-2 100 nM (Human primary T cells [2]) | IFN-y 1 nM (Human primary T cells [3]) | IFN-y 10 nM (Human primary T cells [3]) | IFN-y 100 nM (Human primary T cells [3]) | CD69 10 nM (Human primary T cells [4]) | CD69 100 nM (Human primary T cells [4])
5.01 to 20 | C[C@H]1CCCN(Cc2cc3c(c(C(F)(F)F)c2)CN(c2cc(C4(Cc5nncn5C)COC4)cc(SCCO)n2)C3=O)C1 [Compound 102, 2-{6-[(2-hydroxyethyl)sulfanyl]-4-{3-[(4-methyl-1,2,4-triazol-3-yl)methyl]oxetan-3-yl}pyridin-2-yl}-6-{[(3S)-3-methylpiperidin-1-yl]methyl}-4-(trifluoromethyl)-3H-isoindol-1-one] | C (values between 0.10 and 0.30: range “C”) | C (values between 0.10 and 0.30: range “C”) | B (values between 0.31 and 0.79: range “B”) | C (values between 0.10 and 0.30: range “C”) | C (values between 0.10 and 0.30: range “C”) | B (values between 0.31 and 1.00: range “B;”) | C (values between 0.30 and 0.60: range “C”) | B (values between 0.61 and 0.80: range “B;”)
5.01 to 20 | CCSc1cc(C2(Cc3nncn3C)COC2)cc(N2Cc3c(cc(CN4CCC[C@H](C)C4)cc3C(F)(F)F)C2=O)n1 [Compound 107, 2-[6-(ethylsulfanyl)-4-{3-[(4-methyl-1,2,4-triazol-3-yl)methyl]oxetan-3-yl}pyridin-2-yl]-6-{[(3S)-3-methylpiperidin-1-yl]methyl}-4-(trifluoromethyl)-3H-isoindol-1-one] | B (values between 0.31 and 0.79: range “B”) | B (values between 0.31 and 0.79: range “B”) | A (between 0.80 and 1.40: range “A”) | B (values between 0.31 and 1.00: range “B;”) | B (values between 0.31 and 1.00: range “B;”) | B (values between 0.31 and 1.00: range “B;”) | A (values between 0.81 and 1.10: range “A”) | A (values between 0.81 and 1.10: range “A”)
5.01 to 20 | Cn1cnnc1CC1(c2cc(NCCC#N)nc(N3Cc4c(cc(CN5CCN(c6ccccc6O)CC5)cc4C(F)(F)F)C3=O)c2)COC1 [Compound 184, 3-((6-(6-((4-(2-hydroxyphenyl)piperazin-1-yl)methyl)-1-oxo-4-(trifluoromethyl)isoindolin-2-yl)-4-(3-((4-methyl-4H-1,2,4-triazol-3-yl)methyl)oxetan-3-yl)pyridin-2-yl)amino)propanenitrile; trifluoroacetic acid] | – | – | – | – | – | – | – | –
100 to 1000 | CCSc1cc(C(CO)(CCl)Cc2nncn2C)cc(N2Cc3c(cc(CN4CCC[C@H](C)C4)cc3C(F)(F)F)C2=O)n1 (stereo partly drawn) [Compound 188, 2-(4-(1-chloro-3-hydroxy-2-((4-methyl-4H-1,2,4-triazol-3-yl)methyl)propan-2-yl)-6-(ethylthio)pyridin-2-yl)-6-(((S)-3-methylpiperidin-1-yl)methyl)-4-(trifluoromethyl)isoindolin-1-one; hydrochloric acid] | – | – | – | – | – | – | – | –
